{"source": "patent US9987381B2", "about": "“Radioligands for imaging the LPA-1 receptor” (BRISTOL-MYERS SQUIBB COMPANY, priority 2013, dated 2018)", "key": {"LPA1 receptor": {"target": "T1, LPA1 receptor (Mus musculus, UniProt P61793)", "T1 construct": "Fresh tissues from naïve mouse lungs and bleomycin treated lungs were immersed into OCT; from tissue; host or cells: lung sections (10 µm) of naïve and bleomycin-treated female C57BL/6 mice", "T1 sequence (P61793 whole entry)": "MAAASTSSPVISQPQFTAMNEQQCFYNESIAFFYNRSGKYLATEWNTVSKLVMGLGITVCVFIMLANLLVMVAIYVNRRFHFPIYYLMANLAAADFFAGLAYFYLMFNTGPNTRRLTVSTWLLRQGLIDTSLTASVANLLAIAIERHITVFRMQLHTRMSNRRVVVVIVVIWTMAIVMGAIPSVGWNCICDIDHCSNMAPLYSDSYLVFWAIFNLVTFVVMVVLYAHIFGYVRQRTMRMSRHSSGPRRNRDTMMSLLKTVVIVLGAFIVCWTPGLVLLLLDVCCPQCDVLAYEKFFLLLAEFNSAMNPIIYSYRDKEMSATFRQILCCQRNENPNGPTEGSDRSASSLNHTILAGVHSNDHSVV", "assay": "In vitro autoradiography of mouse lung sections: [18F] radioligand binding and displacement by blocking compound", "conditions": "for displacement of [18F] radioligand vs total binding: 3.9 nM radioligand", "procedure": "The naïve lung mouse tissues were collected from female C57BL/6 mice (8-10 weeks old; 18-25 grams), the samples were stored in −80° C. degree freezer until use. The bleomycin treated animals consists of female C57BL/6 mice (8-10 weeks old; 18-25 grams) were anesthetized with 5% isoflurane the day before study initiation. Bleomycin was dissolved into sterile phosphate buffered saline to a concentration of 500 μg/ml. For injection, mice were anesthetized with 5% isoflurane and using a 1 cc syringe with a 27 g needle, 100 μl of the stock bleomycin solution was injected subcutaneously (SC) into the center of each shaved region (50 μg/site). The bleomycin was administered 5 days/week, Monday through Friday, and was injected into the same region each day until Day 28. Specifically the left lobe of lung was harvested and inflated using a 1:1 OCT (which consists of a mixture 10.24% w/w polyvinyl alcohol 4.26% w/w polyethylene glycol 85.50 w/w non-reactive ingredients)/phosphate buffered saline mixture.\nFresh tissues from naïve mouse lungs and bleomycin treated lungs were immersed into OCT and chilled in 2-methylbutane for 2-5 minutes until frozen. The tissues were then wrapped in foil/ZIPLOC® bag and stored at −80° C. Tissue sections of 10 μm thickness (collected as 2 sections/slide) were cut using a cryostat and thaw-mounted on glass microscope slides, allowed to air dry for approximately 30 minutes. Blocking studies with 1-(4′-(3-methyl-4-(((l-phenylethoxy)carbonyl)amino)isoxazol-5-yl)-[1,1′-biphenyl]-4-yl)cyclopropanecarboxylic acid at 0.1 nM, 1 nM and 10 nM respectively were conducted using the following conditions. The individual slides, 4 slides per concentration, were pre-incubated in a mixture of 50 mM Hepes, […], pH=7.4 and 0.05% Tween-20 buffer solution that contains only this buffer (total binding), as well as […] 1-(4′-(3-methyl-4-(((l-phenylethoxy)carbonyl)amino)isoxazol-5-yl)-[1,1′-biphenyl]-4-yl)cyclopropanecarboxylic acid, 1 nM 1-(4′-(3-methyl-4-(((1-phenylethoxy)carbonyl)amino)isoxazol-5-yl)-[1,1′-biphenyl]-4-yl)cyclopropanecarboxylic acid and 10 nM 1-(4′-(3-methyl-4-(((1-phenylethoxy)carbonyl)amino)isoxazol-5-yl)-[1,1′-biphenyl]-4-yl)cyclopropanecarboxylic acid for a 3 hour period. These individual slides were then incubated in the buffer solution containing 3.9 nM of [^18F]-1-(4′-(4-((((3-(fluoromethyl)benzyl)oxy)carbonyl)amino)-3-methylisoxazol-5-yl)-[1,1′-biphenyl]-4-yl)cyclopropanecarboxylic acid that was formulated in 10% ethanol 90% 0.5% sodium bicarbonate. This solution was diluted with 300 ml of buffer solution to generate a stock solution. From this stock solution, 40 ml was added to each incubation chamber. One of these chambers contained only the radioligand buffer solution, which is referred to as the total binding section. An additional 40 ml was added to each incubation chamber along with the relevant concentration of blocking compound (1-(4′-(3-methyl-4-(((1-phenylethoxy)carbonyl)amino)isoxazol-5-yl)-[1,1′-biphenyl]-4-yl)cyclopropanecarboxylic acid at 0.1 nM, 1 nM, 10 nM). Then the individual slides were incubated in the buffer solution containing the [^18F]-1-(4′-(4-((((3-(fluoromethyl)benzyl)oxy)carbonyl)amino)-3-methylisoxazol-5-yl)-[1,1′-biphenyl]-4-yl)cyclopropanecarboxylic acid radioligand and blocking compound for 1.5 hours at room temperature to reach maximum binding. After 4.5 hours of total incubation, slides from each treatment group were removed from the incubation solutions and placed in an ice-cold wash buffer (50 mM Hepes, 100 mM NaCl, and 0.05% Tween-20, pH=7.4) and rinsed 4 times. Slides were then dried under a stream of cold air for approximately 1 hour. The air-dried slides were exposed by placing the slides onto an imaging plate (BAS-SR 3545S) for 15 minutes at room temperature. The imaging plate was scanned using the bioimaging analyzer (Fujifilm Fluorescent Image Analyzer, FLA-9000). The pixel size of the autoradiogram images was 100 μm. […]"}, "LPA1": {"target": "T2, LPA1 (Macaca mulatta, UniProt H9EN64)", "T2 construct": "from tissue; host or cells: lung of living anaesthetised rhesus monkeys (in vivo PET)", "T2 sequence (H9EN64 1-364)": "as the sequence (P61793 whole entry) above, with A4I, S8I, Q22P, Y40H, V61I, D193E, H194N, V269I, N331S, N335S counted along it", "assay": "PET blocking study of [11C]-BMT-136088 with BMS-986020", "type": "in vivo, rhesus monkeys", "procedure": "For the blocking data reanalyzed here, each animal was scanned twice during the administration of [^11C]-BMT-136088, using a bolus plus infusion (B+I) protocol: at baseline first, then during the administration of the blocking drug, BMS-986020, also using a bolus plus infusion protocol.\nIn the blocking study, BMS-986020 was administered i.v. using a 10-min bolus ([…]) followed by a ˜230 min infusion (0.25 mg/kg/hr) for a total dose of 1.224±0.015 mg/kg.\nTwo rhesus monkeys were included in the blocking, test-retest, and saturation studies: one male, one female; age=4.8±0.8 y; weight=8.6±0.4 kg. Studies in the same animal were separated by at least 2 weeks to allow the animal to recover from anesthesia and other effects. Four rhesus monkeys (2M, 2F) were included in the dosimetry study.\nFollowing a low-dose, CT scan used for attenuation correction and to delineate the lung regions of interest, [^11C]-BMT-136088 was injected using a computer-control pump with a bolus plus infusion protocol, with an initial 1-min bolus and a ˜119-min infusion. The volume injected during the initial bolus represented 100 min (Kbol) worth of infusion in the blocking and test-retest study, and 300 min worth of infusion in the saturation study.\nBeginning at the start of each injection, a 120-minute time-of-flight list-mode acquisition on the mCT PET/CT scanner (Siemens Medical Solutions USA, Inc.) was performed. Dynamic PET scan data were reconstructed with corrections for point-spread function, attenuation, normalization, scatter, randoms, and dead time using a 3D OP-OSEM TOF algorithm. PET images were reconstructed into 33 frames, with the following frame timing: 6×30 sec; 3×1 min; 2×2 min; 22×5 min. Each frame contained 400×400×111 (x,y,z) voxels (2.04×2.04×2.0 mm).\nBlood samples for PK for each blockade study session were obtained at −1, 60, 90, 120, 150, 210, 240 and 270 minutes after the start of BMS-986020 bolus plus infusion. Red cells were precipitated at 3200 rpm for 10 minutes at 10° C.; the plasma was divided into two aliquots and frozen at −80° C. until shipped for analysis. […]"}}, "data": [{"smiles": "Cc1noc(-c2ccc(-c3ccc(C4(C(=O)O)CC4)cc3)cc2)c1NC(=O)OC(C)c1ccccc1", "note": "(centres unmarked) [1-(4′-(3-methyl-4-(((1-phenylethoxy)carbonyl)amino)isoxazol-5-yl)-[1,1′-biphenyl]-4-yl)cyclopropanecarboxylic acid]", "values": [{"measurement": "radioligand displacement (FIG. 2)", "setting": "LPA1 receptor; 10 nM blocking compound, naïve and bleomycin treated mouse lung sections", "result": "~80", "unit": "%"}, {"measurement": "displacement of [18F] radioligand vs total binding", "setting": "LPA1 receptor; bleomycin treated mouse lung tissue sections, 0.1 nM blocking compound", "result": "11.3+/−4.2%"}, {"measurement": "displacement of [18F] radioligand vs total binding", "setting": "LPA1 receptor; bleomycin treated mouse lung tissue sections, 1 nM blocking compound", "result": "55.5+/−2.3%"}, {"measurement": "displacement of [18F] radioligand vs total binding", "setting": "LPA1 receptor; bleomycin treated mouse lung tissue sections, 10 nM blocking compound", "result": 82.7, "unit": "%+/−1.4"}, {"measurement": "displacement of [18F] radioligand vs total binding", "setting": "LPA1 receptor; naïve mouse lung tissue sections, 0.1 nM blocking compound", "result": "18.2+/−7.6%"}, {"measurement": "displacement of [18F] radioligand vs total binding", "setting": "LPA1 receptor; naïve mouse lung tissue sections, 1 nM blocking compound", "result": "57.3+/−2.6%"}, {"measurement": "displacement of [18F] radioligand vs total binding", "setting": "LPA1 receptor; naïve mouse lung tissue sections, 10 nM blocking compound", "result": 72.6, "unit": "%+/−6.7"}]}, {"smiles": "Cc1noc(-c2ccc(-c3ccc(C4(C(=O)O)CC4)cc3)cc2)c1NC(=O)O[C@H](C)c1ccccc1", "note": "[BMS-986020]", "values": [{"measurement": "blockade effect", "setting": "LPA1; VT by MA1, all corrections incl. lung density and blood radioactivity, BMS-986020 i.v. bolus plus infusion", "result": "54±11", "unit": "%"}, {"measurement": "occupancy of LPA1 binding", "setting": "LPA1; at 1.25 mg/kg", "result": "~100", "unit": "%"}, {"measurement": "receptor occupancy at 1.25 mg/kg", "setting": "LPA1; rhesus monkey, at 1.25 mg/kg, read-out: occupancy of LPA1 binding", "result": "103 ± 20", "unit": "%"}]}, {"smiles": "Cc1noc(-c2ccc(-c3ccc(C4(C(=O)O)CC4)cc3)cc2)c1NC(=O)OCc1cccc(C[18F])c1", "note": "[[^18F]-1-(4′-(4-((((3-(fluoromethyl)benzyl)oxy)carbonyl)amino)-3-methylisoxazol-5-yl)-[1,1′-biphenyl]-4-yl)cyclopropanecarboxylic acid]", "values": [{"measurement": "localisation of radioligand binding in lung", "setting": "LPA1 receptor; bleomycin treated mouse lung section, trichrome collagen staining, FIG. 1", "result": "resides within positive collagen"}]}]}
